Drawing on US4002623A, “Anti-inflammatory 1-[3-(dialkylamino)propyl]-2-acylaminobenzimidazoles and 2-acylamino-3-[3-(dialkylamino)-propyl]imidazo[4,5-b]pyridines” (Pfizer Inc., priority 1974, dated 1977), this text covers inhibition in vivo for 35 compounds.

The first assay is described as follows: adjuvant arthritis screen (Walz et al.), swelling of the non-injected left hind foot on Day 16. The format is in vivo, male inbred Lewis rats. To be noted: Rattus norvegicus, 384 h, 10 mg./kg. ip, daily day -1 through day 15, read-out: Activity Percent Inhibition. An excerpt: The adjuvant arthritis test described by Walz et al., Ann. Rheum. Dis., 30, 303 (1971) was selected as the method of choice for the determination of the extent of which the novel compounds of the present invention are therapeutically effective as anti-inflammatory agents. Adjuvant arthritis is a crippling deformity in rats resulting from diffuse connective tissue involvement. It is considered by some authorities to be the best available experimental animal model of human rheumatoid arthritis because of its strong clinical and pathological similarities to the human disease and because it can be effectively treated with known anti-arthritic drugs. In this test, lesions resembling those of human rheumatoid arthritis are induced by the injection of complete Freund's adjuvant into one hind leg of a rat. A vigorous inflammatory response occurs in the injected hind leg and reaches its greatest size in about four days. This primary response is followed by the development of a second inflammatory response, appearing about 12-16 days post-injection, that occurs in the uninjected hind leg. While the compounds of the invention are capable of inhibiting the degree of inflammation in both legs, the inhibition of swelling in the uninjected leg at 16 days is considered to be the more meaningful measure of antiarthritic activity.
The adjuvant arthritis screen as described by Walz et al. (Ann. Rheum. Dis., 30: 303 (1971), was used to evaluate the above prepared compounds.
The screen is conducted using male inbred Lewis rats weighing approximately 250 gm. The animals are dosed with drug beginning on day- 1 and continuing daily through day 15. On Day 0, the subplanter surface of the right hind paw is injected with 0.1cc of a 1% suspension of Mycobacterium butyricum (Freunds adjuvant) in Primol (Esso). The swelling of the non-injected left hind foot on Day 16, resulting from immune response to adjuvant, was determined for dosed animals and controls. The foot volume is measured by immersing the paw to the anatomical hairline into a mercury reservoir which is connected to a Statham pressure transducer and a recording device. The results are expressed as % inhibition calculated according to the following equation: [formula] The results obtained are as follows for [drawing 22] where Z is --N(CH3)2 and X is carbon: […]
Turning to `O=C(Nc1nc2ccccc2n1CCCN1CCN(Cc2ccccc2)CC1)c1cccc(C(F)(F)F)c1` [3-Trifluoromethylphenyl; H; H; drawing 27], the inhibition in vivo at 10 mg/kg stood at 35%.

Consider `CN(C)CCCn1c(NC(=O)c2ccc(Cl)cc2)nc2ccccc21` [4-Chlorophenyl; H; H; Z = N(CH3)2, 1-[3-(dimethylamino)propyl]-2-(4-chlorobenzamido)-benzimidazole], for which the inhibition in vivo at 10 mg/kg was 27%.

Staying with this assay, now noted: Rattus norvegicus, 384 h, 10 mg./kg. po, daily day -1 through day 15, read-out: Activity Percent Inhibition.
With `CN1CCN(CCCn2c(NC(=O)c3cccc(C(F)(F)F)c3)nc3cc(C(F)(F)F)ccc32)CC1` [3-Trifluoromethylphenyl; CF3; H; drawing 24, 1-[3-(4-methyl-1-piperazinyl)propyl]-2-(3-trifluoromethylbenzamido)-5-trifluoromethylbenzimidazole], the inhibition in vivo at 10 mg/kg came to 46%. Same read-out and setting: with `CN1CCN(CCCn2c(NC(=O)c3cccc(C(F)(F)F)c3)nc3cc(Cl)ccc32)CC1` [3-Trifluoromethylphenyl; Cl; H; drawing 24] the figure was 16%; with `CN1CCN(CCCn2c(NC(=O)c3cccc(C(F)(F)F)c3)nc3ccccc32)CC1` [3-Trifluoromethylphenyl; H; H; drawing 24], 18%; with `O=C(Nc1nc2ccccc2n1CCCN1CCNCC1)c1cccc(C(F)(F)F)c1` [3-Trifluoromethylphenyl; H; H; drawing 28], 13%. Turning to `COc1ccc2c(c1)nc(NC(=O)c1cccc(C(F)(F)F)c1)n2CCCN1CCN(C)CC1` [3-Trifluoromethylphenyl; OCH3; H; drawing 24], the inhibition in vivo at 10 mg/kg was -5%. On the same count and under the same terms, to `CN1CCN(CCCn2c(NC(=O)c3ccc(Cl)cc3)nc3cc(Cl)ccc32)CC1` [4-Chlorophenyl; Cl; H; drawing 24] belongs -10%.

Staying with this assay, now noted: Rattus norvegicus, 384 h, 20 mg./kg. po, daily day -1 through day 15, read-out: Activity Percent Inhibition.
Regarding `COc1cccc(C(=O)Nc2nc3cccnc3n2CCCN2CCN(C)CC2)c1` [3-Methoxyphenyl; H; H; drawing 25], the inhibition in vivo at 20 mg/kg stood at 25%.

Consider `COc1cccc(C(=O)Nc2nc3cc(S(=O)(=O)N(C)C)ccc3n2CCCN2CCN(C)CC2)c1` [3-Methoxyphenyl; SO2 N(CH3)2; H; drawing 24], for which the inhibition in vivo at 20 mg/kg amounted to 13%. The same measure, in the same setting: to `Cc1ccc2c(c1)nc(NC(=O)c1cccc(C(F)(F)F)c1)n2CCCN1CCN(C)CC1` [3-Trifluoromethylphenyl; CH3; H; drawing 24] belongs 27%; to `Cc1ccc2nc(NC(=O)c3cccc(C(F)(F)F)c3)n(CCCN3CCN(C)CC3)c2c1` [3-Trifluoromethylphenyl; H; CH3; drawing 24], 21%. On the same count and under the same terms, to `CN1CCN(CCCn2c(NC(=O)c3cccc(C(F)(F)F)c3)nc3cccnc32)CC1` [3-Trifluoromethylphenyl; H; H; drawing 25, 2-(3-trifluoromethylbenzamido)-3-[3-(4-methyl-1-piperazino)propyl]imidazo[4,5-b]pyridine] belongs 39%; to `Cc1cc2nc(NC(=O)c3ccc(Cl)cc3)n(CCCN3CCN(C)CC3)c2cc1C` [4-Chlorophenyl; CH3; CH3; drawing 24], 30%; to `Cc1ccc2c(c1)nc(NC(=O)c1ccc(Cl)cc1)n2CCCN1CCN(C)CC1` [4-Chlorophenyl; CH3; H; drawing 24], 27%.

On to `CN1CCN(CCCn2c(NC(=O)c3ccc(Cl)cc3)nc3cccnc32)CC1` [4-Chlorophenyl; H; H; drawing 25], for which the inhibition in vivo at 20 mg/kg was found to be 26%. With `CN1CCN(CCCn2c(NC(=O)c3ccc(Cl)cc3)nc3cc(S(=O)(=O)N(C)C)ccc32)CC1` [4-Chlorophenyl; SO2 N(CH3)2; H; drawing 24], the inhibition in vivo at 20 mg/kg came to 18%. `CN1CCN(CCCn2c(NC(=O)C=Cc3ccc(Cl)cc3)nc3cc(C(F)(F)F)ccc32)CC1` [4-Chlorostyryl; CF3; H; drawing 24]: the inhibition in vivo at 20 mg/kg was 6%. In the case of `Cc1ccc2c(c1)nc(NC(=O)C=Cc1ccc(Cl)cc1)n2CCCN1CCN(C)CC1` [4-Chlorostyryl; CH3; H; drawing 24, 1-[3-(4-methyl-1-piperazinyl)propyl]-2-(p-chlorocinnamido)-5-methylbenzimidazole], the inhibition in vivo at 20 mg/kg amounted to 39%.

The same assay, now with this note: Rattus norvegicus, 384 h, 33 mg./kg. ip, daily day -1 through day 15, read-out: Activity Percent Inhibition.
On to `COc1cccc(C(=O)Nc2nc3ccccc3n2CCCN2CCOCC2)c1` [3-Methoxyphenyl; H; H; drawing 23], for which the inhibition in vivo at 33 mg/kg amounted to 29%. On the same count and under the same terms, to `COc1cccc(C(=O)Nc2nc3ccccc3n2CCCN2CCN(C)CC2)c1` [3-Methoxyphenyl; H; H; drawing 24] belongs 26%.

Regarding `COc1cccc(C(=O)Nc2nc3ccccc3n2CCCN2CCCCC2)c1` [3-Methoxyphenyl; H; H; drawing 26], the inhibition in vivo at 33 mg/kg stood at 52%. Still for that read-out and setting: to `COc1cccc(C(=O)Nc2nc3cc(OC)ccc3n2CCCN2CCN(C)CC2)c1` [3-Methoxyphenyl; OCH3; H; drawing 24] belongs 43%; to `Cc1cccc(C(=O)Nc2nc3ccccc3n2CCCN(C)C)c1` [3-Methylphenyl; H; H; Z = N(CH3)2], 21%; to `Cc1cccc(C(=O)Nc2nc3ccccc3n2CCCN2CCOCC2)c1` [3-Methylphenyl; H; H; drawing 23], 40%. Turning to `Cc1cccc(C(=O)Nc2nc3ccccc3n2CCCN2CCN(C)CC2)c1` [3-Methylphenyl; H; H; drawing 24], the inhibition in vivo at 33 mg/kg came to 39%. As for `CN1CCN(CCCn2c(NC(=O)c3cccc(C(F)(F)F)c3)nc3cc(C(F)(F)F)ccc32)CC1` [3-Trifluoromethylphenyl; CF3; H; drawing 24, 1-[3-(4-methyl-1-piperazinyl)propyl]-2-(3-trifluoromethylbenzamido)-5-trifluoromethylbenzimidazole], the inhibition in vivo at 33 mg/kg came to 83%. Still for that read-out and setting: to `CN1CCN(CCCn2c(NC(=O)c3cccc(C(F)(F)F)c3)nc3cc(Cl)c(Cl)cc32)CC1` [3-Trifluoromethylphenyl; Cl; Cl; drawing 24] belongs 74%; to `CN1CCN(CCCn2c(NC(=O)c3cccc(C(F)(F)F)c3)nc3cc(Cl)ccc32)CC1` [3-Trifluoromethylphenyl; Cl; H; drawing 24], 74%; to `O=C(Nc1nc2ccccc2n1CCCN1CCOCC1)c1cccc(C(F)(F)F)c1` [3-Trifluoromethylphenyl; H; H; drawing 23], 0%. On to `CN1CCN(CCCn2c(NC(=O)c3cccc(C(F)(F)F)c3)nc3ccccc32)CC1` [3-Trifluoromethylphenyl; H; H; drawing 24], for which the inhibition in vivo at 33 mg/kg was found to be 79%.

On to `O=C(Nc1nc2ccccc2n1CCCN1CCCCC1)c1cccc(C(F)(F)F)c1` [3-Trifluoromethylphenyl; H; H; drawing 26], for which the inhibition in vivo at 33 mg/kg came to 30%. On the same count and under the same terms, with `COc1ccc2c(c1)nc(NC(=O)c1cccc(C(F)(F)F)c1)n2CCCN1CCN(C)CC1` [3-Trifluoromethylphenyl; OCH3; H; drawing 24] the figure was 57%. As for `CN1CCN(CCCn2c(NC(=O)c3ccc(Cl)cc3)nc3cc(C(F)(F)F)ccc32)CC1` [4-Chlorophenyl; CF3; H; drawing 24], the inhibition in vivo at 33 mg/kg was 47%. Take `CN1CCN(CCCn2c(NC(=O)c3ccc(Cl)cc3)nc3cc(Cl)ccc32)CC1` [4-Chlorophenyl; Cl; H; drawing 24]: the inhibition in vivo at 33 mg/kg is 63%. Consider `CN(C)CCCn1c(NC(=O)c2ccc(Cl)cc2)nc2ccccc21` [4-Chlorophenyl; H; H; Z = N(CH3)2, 1-[3-(dimethylamino)propyl]-2-(4-chlorobenzamido)-benzimidazole], for which the inhibition in vivo at 33 mg/kg is 51%. Still for that read-out and setting: to `O=C(Nc1nc2ccccc2n1CCCN1CCOCC1)c1ccc(Cl)cc1` [4-Chlorophenyl; H; H; drawing 23] belongs 15%; to `CN1CCN(CCCn2c(NC(=O)c3ccc(Cl)cc3)nc3ccccc32)CC1` [4-Chlorophenyl; H; H; drawing 24], 43%. Take `O=C(Nc1nc2ccccc2n1CCCN1CCCCC1)c1ccc(Cl)cc1` [4-Chlorophenyl; H; H; drawing 26]: the inhibition in vivo at 33 mg/kg came to 46%. Still for that read-out and setting: with `CN1CCN(CCCn2c(NC(=O)C=Cc3ccc(Cl)cc3)nc3cc(Cl)ccc32)CC1` [4-Chlorostyryl; Cl; H; drawing 24] the figure was 66%; with `CN(C)CCCn1c(NC(=O)C=Cc2ccc(Cl)cc2)nc2ccccc21` [4-Chlorostyryl; H; H; Z = N(CH3)2], 33%.
